The record followed here is PubChem BioAssay (NCI).

What all share (assay): DTP human tumour cell line panel, 48 h
Assay [1] relates to SN12C renal.
Assay [2] has as its system EKVX NSCLC.
The test system of assay [3] is SK-MEL-5 melanoma.
Assay [4] deals with NCI-H460 lung.
The subject of assay [5] is LOX IMVI melanoma.
Assay [6] deals with SF-268 CNS.
The test system of assay [7] is BT-549 breast.
Assay [8] has as its system TK-10 renal.

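Following 48 hours of exposure in 96-well plates, responses at five concentrations were used to interpolate endpoints linearly. GI50: concentration for 50% inhibition of growth. TGI: concentration producing complete growth inhibition.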

For `Cn1c(NCC(O)CN2CCCC2)cc(=O)n(C)c1=O` (centres undefined), the GI50 in assay [1], in assay [2], in assay [3], in assay [4], in assay [5] and in assay [6] was over 100 µM each time. Also, the GI50 in assay [7] and in assay [8] was over 100 µM each time. The concentration for total growth inhibition (TGI) in assay [1], in assay [2], in assay [3], in assay [4], in assay [5] and in assay [6] was over 100 µM in each case. Further, the total growth inhibition concentration (TGI) in assay [7] and in assay [8] was over 100 µM in each case.

Take `COc1ccc(C2C=C(c3ccc4c(c3)OCO4)Oc3c2c(=O)oc2ccccc32)cc1OC` (centres undefined): the TGI in assay [1], in assay [2], in assay [3], in assay [4], in assay [5] and in assay [6] was over 100 µM in each case. Also, the TGI in assay [7] is over 100 µM; in assay [8] it was over 78.1 µM.

`O=S(=O)(/N=c1/scc(-c2ccccc2)n1-c1ccccc1)c1ccc(N2N=C3c4ccccc4CC3C2c2cccs2)cc1` (centres undefined): the GI50 in assay [1] is 94.3 µM; in assay [2], 35.5 µM; in assay [3], 48 µM; in assay [4], 95.1 µM; in assay [5] it was 32.4 µM; in assay [6], over 100 µM. The GI50 is 47.5 µM in assay [7] and 32.7 µM in assay [8]. Moreover, the concentration for total growth inhibition (TGI) in assay [1], in assay [2], in assay [3], in assay [4], in assay [5] and in assay [6] was over 100 µM in each case. Moreover, the concentration for total growth inhibition (TGI) in assay [7] was over 100 µM; in assay [8], 75.3 µM.

`CS(=O)(=O)CC(=O)c1ccccc1`: the TGI in assay [1], in assay [2], in assay [3], in assay [4], in assay [5] and in assay [6] was over 100 µM in each case. The TGI in assay [7] and in assay [8] was over 100 µM throughout.

In the case of `COc1ccc(/C=C2\C=C(c3ccccc3)N(CCc3ccccc3)C2=O)cc1OC`, the GI50 in assay [1] is 4.88 µM; in assay [2] it was 10.4 µM; in assay [3], 9.29 µM; in assay [4], 7.34 µM; in assay [5], 5.94 µM; in assay [6], 8.18 µM. For the same compound, the GI50 in assay [7] is 12.4 µM; in assay [8], 2.28 µM. The TGI in assay [1] came to 21.8 µM; in assay [2] it was 54 µM; in assay [3], 94.5 µM; in assay [4], 30.7 µM; in assay [5] it was 19 µM; in assay [6], 26.5 µM. Also, the TGI is 49.9 µM in assay [7] and 4.91 µM in assay [8].

Take `Clc1ccc(OCc2nnc3n2N=C(c2ccc(Cl)cc2Cl)CS3)cc1`: the GI50 in assay [1] is 14.8 µM; in assay [2], 20.5 µM; in assay [3] it was 16.4 µM; in assay [4] it was 17.2 µM; in assay [5], 16.2 µM; in assay [6], 17.4 µM. Moreover, the GI50 is 22.8 µM in assay [7] and 15.9 µM in assay [8]. In addition, the TGI stood at 30.6 µM in assay [1]; 52.9 µM in assay [2]; 31.9 µM in assay [3]; 51 µM in assay [4]; 30.9 µM in assay [5]; 40.2 µM in assay [6]. Besides, the figures for the TGI in assay [7] and in assay [8] were 46.2 µM and over 100 µM, respectively.

As to `CC(=O)OC1CC2C3CCC4C[C@@H](NC(=O)C=C(C)C)CC[C@]4(C)C3CC[C@]2(C)[C@H]1C(C)N(C)C` (some centres undefined), the GI50 in assay [1] was 2.4 µM; in assay [2] it was 2.25 µM; in assay [3], 1.37 µM; in assay [4], 0.885 µM; in assay [5], 1.07 µM; in assay [6], 1.58 µM. Moreover, the figures for the GI50 in assay [7] and in assay [8] were 4.21 µM and 5.45 µM, respectively. Further, the TGI came to 8 µM in assay [1]; 11.3 µM in assay [2]; 2.71 µM in assay [3]; 2.65 µM in assay [4]; 2.53 µM in assay [5]; 3.4 µM in assay [6]. For the same compound, the TGI in assay [7] is 11.1 µM; in assay [8], 13.3 µM.

With `NCOC(=O)Cc1ccc(Br)cc1`, the TGI in assay [1], in assay [2], in assay [3], in assay [4], in assay [5] and in assay [6] was over 100 µM in each case. Also, the TGI in assay [7] and in assay [8] was over 100 µM throughout.
